Like-named read-outs stand apart in the source and are kept apart here.
Experiments:
5-HT1A receptor [1] = molecular target: T1, 5-HT1A receptor (Homo sapiens, UniProt P08908); assay: cAMP accumulation assay, 5-HT1A function; format: cell-based; details: for EC50: cells marked EC50 (agonist); for IC50: cells marked IC50 (antagonist), read-out: 5-HT1A Function cAMP IC50
T1 sequence (P08908 1-422): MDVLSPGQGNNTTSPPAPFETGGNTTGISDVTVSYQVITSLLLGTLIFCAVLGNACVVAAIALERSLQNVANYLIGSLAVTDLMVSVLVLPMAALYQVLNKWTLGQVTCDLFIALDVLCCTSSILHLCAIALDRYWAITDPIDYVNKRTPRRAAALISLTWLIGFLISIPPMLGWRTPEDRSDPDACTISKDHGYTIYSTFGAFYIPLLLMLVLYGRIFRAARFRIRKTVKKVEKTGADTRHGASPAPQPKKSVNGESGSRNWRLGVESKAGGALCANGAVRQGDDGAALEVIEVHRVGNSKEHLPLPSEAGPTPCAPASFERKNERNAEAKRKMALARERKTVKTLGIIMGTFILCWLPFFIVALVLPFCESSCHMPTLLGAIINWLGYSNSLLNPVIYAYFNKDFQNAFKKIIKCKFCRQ

[2] = molecular target: T2, cloned human 5-HT1A receptors (Homo sapiens, UniProt P08908); assay: 35S-GTPγS binding assay, 5-HT1A function; format: biochemical; details: for EC50: agonist potency; for IC50: antagonist potency, reversal of 8-OH-DPAT, read-out: 5-HT1A Function GTPγS IC50
T2 construct: expressed in transfected cells
T2 sequence (P08908 1-422): T1 sequence (P08908 1-422)

5-HT1A receptor [3] = molecular target: T1, 5-HT1A receptor; assay: 5-HT1A receptor affinity: displacement of [3H] 8-OH-DPAT; format: binding; set-up: expressed in transfected cells; details: displacement of [3H] 8-OH-DPAT; CHO cells stably transfected with human 5-HT1A receptors; read-out: 5-HT1A Receptor Affinity Ki
serotonin transporter = molecular target: T3, serotonin transporter (Rattus norvegicus, UniProt P31652); assay: 5-HT transporter affinity: displacement of 3H-paroxetine from male rat cortical membranes; format: binding; details: displacement of 3H-paroxetine; male rat cortical membranes; read-out: 5-HT Transporter Affinity Ki
T3 construct: displace ^3H-paroxetine from male rat cortical membranes; from tissue; host or cells: male rat cortical membranes
T3 sequence (P31652 whole entry): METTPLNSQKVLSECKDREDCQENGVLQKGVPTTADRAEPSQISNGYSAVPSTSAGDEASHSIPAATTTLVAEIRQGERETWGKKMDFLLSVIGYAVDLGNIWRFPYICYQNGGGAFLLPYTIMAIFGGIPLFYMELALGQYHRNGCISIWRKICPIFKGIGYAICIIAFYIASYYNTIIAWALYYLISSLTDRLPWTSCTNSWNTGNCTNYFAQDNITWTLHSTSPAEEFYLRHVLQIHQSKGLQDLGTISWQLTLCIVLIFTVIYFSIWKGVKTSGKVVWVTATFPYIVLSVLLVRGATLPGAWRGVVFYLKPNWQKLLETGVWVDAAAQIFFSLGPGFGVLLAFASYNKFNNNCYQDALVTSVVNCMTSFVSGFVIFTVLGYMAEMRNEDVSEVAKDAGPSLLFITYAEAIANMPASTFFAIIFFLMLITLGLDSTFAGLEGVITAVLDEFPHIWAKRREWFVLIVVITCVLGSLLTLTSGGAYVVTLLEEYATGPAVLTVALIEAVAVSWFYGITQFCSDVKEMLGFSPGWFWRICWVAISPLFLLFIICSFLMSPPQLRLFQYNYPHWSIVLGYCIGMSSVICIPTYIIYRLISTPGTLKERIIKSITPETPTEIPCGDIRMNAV

[4] = in brackets after EC50 or IC50, read-out: 5-HT1A Function cAMP (Emax)
[5] = maximum stimulatory effect, in brackets after EC50, read-out: 5-HT1A Function GTPγS (Emax)
[6] = maximum stimulatory effect, in brackets after EC50
[7] = maximum inhibitory effect, in brackets after IC50, read-out: 5-HT1A Function GTPγS (Imax)

| Compound | EC50 (5-HT1A receptor [1]) [nM] | Emax (5-HT1A receptor [1]; [4]) [%] | EC50 [2] [nM] | Emax [2, 5] [%] | Ki (5-HT1A receptor [3]) [nM] | Ki (serotonin transporter) [nM] | 5-HT1A Function cAMP (Emax) (5-HT1A receptor [1]; in brackets after EC50 or IC50) [%] | 5-HT1A Function GTPγS (Emax) [2, 6] [%] | IC50 [2] [nM] | Emax [2, 7] [%] | IC50 (5-HT1A receptor [1]) [nM] | 5-HT1A Function GTPγS (Imax) ([2]; maximum inhibitory effect, in brackets after IC50) [%] | Emax (5-HT1A receptor [1]; read-out: 5-HT1A Function cAMP (Emax), in brackets after EC50 or IC50) [%] |
| --- | --- | --- | --- | --- | --- | --- | --- | --- | --- | --- | --- | --- | --- |
| COc1cccc2c1CC(N(CCCc1c[nH]c3ccc(F)cc13)CC1CCC1)CO2 (stereo not drawn) [Compound 42, N-(cyclobutylmethyl)-N-[3-(5-fluoro-1H-indol-3-yl)propyl]-N-(5-methoxy-3,4-dihydro-2H-chromen-3-yl)amine] | 154 | 72.5 | 763 | 84 | 50.4 | 54 | – | – | – | – | – | – | – |
| NC(=O)c1cccc2c1CC(N(CCCc1c[nH]c3ccc(F)cc13)C1CCC1)CO2 (single isomer, unassigned; (+)) [Compound 134b, (+)-3-{cyclobutyl[3-(5-fluoro-1H-indol-3-yl)propyl]amino}chromane-5-carboxamide] | 44.5 | – | 581 | – | 29.6 | 7.2 | 66.5 | 71 | – | – | – | – | – |
| CCCN(CCCc1c[nH]c2ccc(F)cc12)C1COc2cccc(C(N)=O)c2C1 (stereo not drawn) [Compound 150, 3-[[3-(5-fluoro-1H-indol-3-yl)propyl](propyl)amino]chromane-5-carboxamide] | 1.23 | 100 | 13 | 74 | 0.93 | 18.6 | – | – | – | – | – | – | – |
| CCN(CCCc1csc2ccccc12)C1COc2cccc(OC)c2C1 (stereo not drawn) [Compound 18, N-[3-(1-benzothien-3-yl)propyl]-N-ethyl-5-methoxychroman-3-amine] | 11 | 93.5 | 232 | 100 | 3.72 | 127 | – | – | – | – | – | – | – |
| COc1cccc2c1CC(N(CCCc1c[nH]c3ccccc13)C1CCC1)CO2 (stereo not drawn) [Compound 44, N-cyclobutyl-N-[3-(1H-indol-3-yl)propyl]-N-(5-methoxy-3,4-dihydro-2H-chromen-3-yl)amine] | 70 | 80.5 | – | – | 21.4 | 47.2 | – | – | 242 | 59 | – | – | – |
| CCCN(CCCc1c[nH]c2ccccc12)C1CCc2cccc(OC)c2C1 (stereo not drawn) [Compound 50, N-[3-(1H-indol-3-yl)propyl]-8-methoxy-N-propyl-1,2,3,4-tetrahydronaphthalen-2-amine] | 2.52 | 98 | 4 | 90 | 2.13 | 14 | – | – | – | – | – | – | – |
| COc1cccc2c1CC(N(CCCc1c[nH]c3ccc(F)cc13)C1CC1)CO2 (stereo not drawn) [Compound 41, N-cyclopropyl-N-[3-(5-fluoro-1H-indol-3-yl)propyl]-N-(5-methoxy-3,4-dihydro-2H-chromen-3-yl)amine] | 162 | 78.5 | 3460 | 84 | 57.3 | 148 | – | – | – | – | – | – | – |
| CCNC(=O)c1ccc(F)c2c1CC(N(CCCc1c[nH]c3ccc(F)cc13)C1CCC1)CO2 (stereo not drawn) [Compound 60, 3-{cyclobutyl[3-(5-fluoro-1H-indol-3-yl)propyl]amino}-N-ethyl-8-fluorochromane-5-carboxamide] | – | 0 | – | – | 17.8 | 4.86 | – | – | 1400 | 100 | 116 | – | – |
| CNC(=O)c1ccc(F)c2c1CC(N(CCCCc1c[nH]c3ccc(F)cc13)CC1CC1)CO2 (stereo not drawn) [Compound 94, 3-{(cyclopropylmethyl)[4-(5-fluoro-1H-indol-3-yl)butyl]amino}-8-fluoro-N-methylchromane-5-carboxamide] | – | 0 | – | – | 1.66 | 1.27 | – | – | 141 | 100 | 58.4 | – | – |
| CCCN(CCC(O)c1csc2ccc(F)cc12)C1COc2c(F)ccc(C(N)=O)c2C1 (stereo not drawn) [Compound 17, 8-fluoro-3-[[3-(5-fluoro-1-benzothien-3-yl)-3-hydroxypropyl](propyl)amino]chromane-5-carboxamide] | 76.2 | 74.5 | 93.3 | 42 | 0.88 | 159 | – | – | – | – | – | – | – |
| COc1cccc2c(CCCCN(C3CCC3)C3COc4c(F)ccc(C(N)=O)c4C3)coc12 (stereo not drawn) [Compound 171, 3-{cyclobutyl[4-(7-methoxy-1-benzofuran-3-yl)butyl]amino}-8-fluorochromane-5-carboxamide] | – | 0 | – | – | 4.27 | 11200 | – | – | 404 | 100 | 108 | – | – |
| CCCN(C(C)CCCc1c[nH]c2ccc(F)cc12)C1COc2c(F)ccc(C(N)=O)c2C1 (single isomer, unassigned; (-)) [Compound 14b, (−)-8-fluoro-3-[[4-(5-fluoro-1H-indol-3-yl)-1-methylbutyl](propyl)amino]chromane-5-carboxamide] | – | – | – | – | 1.88 | 9.5 | 0 | – | 477 | – | 110 | 100 | – |
| CCCN(CCc1c[nH]c2ccc(F)cc12)C1COc2c(F)ccc(C(N)=O)c2C1 (stereo not drawn) [Compound 77, 8-fluoro-3-[[2-(5-fluoro-1H-indol-3-yl)ethyl](propyl)amino]chromane-5-carboxamide] | – | 0 | – | – | 18 | 60.5 | – | – | 2570 | 100 | 68.3 | – | – |
| CCN(CCCCc1coc2ccccc12)C1COc2cccc(OC)c2C1 (stereo not drawn) [Compound 22, N-[4-(1-benzofuran-3-yl)butyl]-N-ethyl-N-(5-methoxy-3,4-dihydro-2H-chromen-3-yl)amine] | 31 | 100 | 224 | 82 | 4.77 | 35.7 | – | – | 1180 | 31 | – | – | – |
| CCCNC(=O)c1ccc(F)c2c1CC(N(CCCc1c[nH]c3ccc(F)cc13)C1CCC1)CO2 (stereo not drawn) [Compound 61, 3-{cyclobutyl[3-(5-fluoro-1H-indol-3-yl)propyl]amino}-8-fluoro-N-propylchromane-5-carboxamide] | – | – | – | – | 195 | 2.4 | – | – | 800 | – | 593 | – | 0 |
| CCCN(CCCCc1c[nH]c2ccc(F)cc12)C1COc2cccc(OC)c2C1 (stereo not drawn) [Compound 30, N-[4-(5-fluoro-1H-indol-3-yl)butyl]-5-methoxy-N-propylchroman-3-amine] | 27.7 | 94 | 94.6 | 83 | 3.62 | 12.6 | – | – | – | – | – | – | – |
| [3-(5-fluoro-1H-indol-3-yl)-propyl]-((3R)-5-methoxychroman-3-yl)propylamine [Compound 24] | 7.02 | – | 48.3 | – | 8.87 | 9.75 | 88.5 | 91.7 | – | – | – | – | – |
| CCN(CCCc1c[nH]c2c(Cl)cccc12)C1COc2c(F)ccc(C(N)=O)c2C1 (stereo not drawn) [Compound 110, 3-[[3-(7-chloro-1H-indol-3-yl)propyl](ethyl)amino]-8-fluorochromane-5-carboxamide] | 36.4 | 75 | 244 | 61 | 6.45 | 4.59 | – | – | 196 | 59 | – | – | – |
| CCCN(CCCc1c[nH]c2ccc(F)cc12)C1CCc2c(F)ccc(OC)c2C1 (single isomer, unassigned; (-)) [Compound 51b, (−)-5-fluoro-N-[3-(5-fluoro-1H-indol-3-yl)propyl]-8-methoxy-N-propyl-1,2,3,4-tetrahydro-2-naphthalenamine] | – | – | – | – | 14.2 | 1.12 | 0 | – | 48 | 46 | 50 | – | – |
